Measured values reported in patent US7351722B2, “Use of Mangafodipir for treating oxidative stress effects” (Universite Rene Descartes (Paris V), priority 2001, dated 2008).

Assays:
[1] = tested on: acetaminophen-induced acute hepatic failure; assay: Animal survival in acetaminophen-induced acute hepatic failure, comparison of Mangafodipir, MnTBAP and CuDIPS (Example 7); type: in vivo, mice; conditions: for number of surviving animals: 10 mg/kg bolus 2 h before 1000 mg/kg APAP, n = 12
Description: The Mangafodipir, the MnTBAP or the CuDIPS are administered in the form of a bolus, in the preventive capacity, 2 hours before the acetaminophen.
Animal survival is monitored for 24 hours after the administration of acetaminophen.

[2] = tested on: hepatocellular deficiency; conditions: inventors' prior studies (PCT/WO 01/12327; Ferret et al. 2001); cited from earlier work

SMILES | number of surviving animals ([1]; time 0 h) | number of surviving animals ([1]; time 6 h) | number of surviving animals ([1]; time 8 h) | number of surviving animals ([1]; time 9 h) | number of surviving animals ([1]; time 10 h) | number of surviving animals ([1]; time 11 h) | number of surviving animals ([1]; time 12 h) | number of surviving animals ([1]; time 13 h) | number of surviving animals ([1]; time 14 h) | number of surviving animals ([1]; time 15 h) | number of surviving animals ([1]; time 16 h) | number of surviving animals ([1]; time 17 h) | number of surviving animals ([1]; time 18 h) | number of surviving animals ([1]; time 20 h) | number of surviving animals ([1]; time 22 h) | number of surviving animals ([1]; time 24 h) | effect on survival rate ([1]; 10 mg/kg preventively, 1000 mg/kg APAP, 24 h) | effect on hepatocellular deficiency [2]
CC(C)c1cc(C(=O)[O-])c(O)c(C(C)C)c1.CC(C)c1cc(C(=O)[O-])c(O)c(C(C)C)c1.[Cu+2] [CuDIPS, Cu[II]-[diisopropylsalicylate]] | 12 | 12 | 11 | 10 | 9 | 7 | 7 | 5 | 5 | 5 | 4 | 4 | 3 | 3 | 3 | 3 | does not significantly increase the survival rate | no significant effect
O=C(O)c1ccc(-c2c3nc(c(-c4ccc(C(=O)O)cc4)c4ccc([n-]4)c(-c4ccc(C(=O)O)cc4)c4nc(c(-c5ccc(C(=O)O)cc5)c5ccc2[n-]5)C=C4)C=C3)cc1.[Mn+3] [MnTBAP, Mn(III)-tetrakis(5,10,15,20-benzoic acid)-porphyrin] | 12 | 12 | 12 | 12 | 11 | 10 | 10 | 10 | 9 | 9 | 8 | 8 | 8 | 8 | 7 | 7 |  | notable preventive and curative effect
